Consider one compound from patent US8828993B2, “Psychotropic agents having glutamate NMDA activity” (Ramot At Tel-Aviv University Ltd., priority 2006, dated 2014).

For the test, the system named is rats pretreated with MK-801. Kind of test: Morris Water Maze in rats pretreated with MK-801. Format: in vivo. As to conditions: rats, MK-801 alone 0.15 mg/kg i.p. on day 1. The method, then:
The Morris Water Maze is a well known test aimed to assess spatial cognitive tasks (Anger, et al., Animal test systems to study behavioral dysfunctions of neurodegenerative disorders, Neurotoxicology, 12, 403-13 (1991)). The maze consists of a circular pool measuring 1.80 m in diameter 60 cm in height. The pool was filled with water (21±1° C.) to a depth of 30 cm. A circular hidden escape platform (10 cm in diameter) was placed just below the water surface. The test room contained several permanent extra maze cues such as the rat housing rack, laboratory table, posters on the walls, etc.
The Morris Water Maze is a well known test aimed to assess spatial cognitive tasks. The maze consists of a circular pool measuring 1.80 m in diameter 60 cm in height. The pool was filled with water (21±1° C.) to a depth of 30 cm. A circular hidden escape platform (10 cm in diameter) was placed just below the water surface. The test room contained several permanent extra maze cues such as the rat housing rack, laboratory table, posters on the walls, etc.
In the experiment rats were given Compound 1 orally on day 1 and the first test begun 90 minute later, six trials per day, for 3 consecutive days, to find the hidden platform (acquisition phase). The escape latency, i.e., the time required by the rat to find and climb onto the platform, was recorded for up to 120 sec. Each rat was allowed to remain on the platform for 30 sec, after which it was removed to its home cage.
A video camera was placed above the center of the pool for tracking the rat, and a video tracking system (Noldus) with online digital output directly fed data into a computer. Data were analyzed using EthoVision automated tracking system software (Noldus).
Compound 1 at both doses decreased the latency to the platform on day 3 of the experiment but not on days 1 and 2.
The relief of cognitive impairments was also shown in the use of Compound 6. […] Compound 6 at 10 mg/kg decreased the latency to the platform on days 2 and 3 of the experimentation.

Take `C[C@]12N[C@H](Cc3ccccc31)c1ccccc12` [MK-801, reference compound]: the “memory tasks (latency to the platform) compared to normal controls” value is “significant impairment”.
